In data set [1] the test system is erythrocytes. Nature of the data set: Erythrocyte membrane integrity by lactate dehydrogenase release. The settings on record: erythrocyte suspension, 10, 50 and 100 µg/mL, 8 hours. Format: cell-based, human. On the procedure:
Erythrocytes produce lactate dehydrogenase (LDH), which may be measured photometrically using the LDH test kit/Lactate Dehydrogenase Assay Kit (Colorimetric) (ab102526) ([50]). For the LDH investigation, blood was obtained from the neighbouring blood bank. The erythrocyte suspension was made according to the methodology described in our earlier research. In 1mL of erythrocyte solution was treated with specific amount of Cabozantinib (CNB), PLGA-PSar-encapsulated Cabozantinib nanoparticles (CNB-PLGA-PSar-NPs), and placebo (PLGA-PSar-NPs) ([51]). Positive control sample was created by diluting erythrocyte suspension with 1% Triton-X-100, whereas negative control sample was created by diluting erythrocyte suspension with normal saline solution. […] LDH was detected at 500nm after a ready-to-use LDH solution was added to the supernatant. The total of LDH was calculated using the following formula. […]
Where, A sample stands for Cabozantinib, PLGA-PSar-encapsulated Cabozantinib nanoparticles (CNB-PLGA-PSar-NPs) incubated erythrocytes absorbance, A negative control indicates, erythrocytes absorbance of sample, which was pre-treated with normal saline solution. The A standard indicates the absorbance of erythrocytes sustention, which were pre-treated with 150/UL Lactate dehydrogenase (LDH) enzyme. […]

The nature of data set [2]: Tissue distribution studies. Particulars: 20 mg/kg i.v. bolus, killed eight hours later. Format: in vivo, SCID mice. From the text: Tissue distribution studies in mice with SCID are required in anti-liver cancer activity to determine the distribution and concentration of a drug within the body after administration ([54]). This information is important for understanding how the drug is metabolized and cleared by the body, as well as for determining appropriate dosing regimens. Additionally, tissue distribution studies can help to identify any potential toxicities or side effects associated with the drug in specific organs or tissues. In the case of anti-liver cancer activity, knowing the distribution of the drug in the liver would be particularly important to ensure the drug is reaching its target site and effectively inhibiting the growth of cancer cells. The tissue distribution of a bolus dosage of 20 mg/kg i.v. Cabozantinib (CNB), CNB-PLGA-PSar-NPs was documented. The greatest concentration of CNB was found in liver parenchymal hepatocyte tissue. […] The increased affinity of CNB in the liver and pancreas enables the medication molecule to effectively treat liver cancer.
The tissue distribution was studied by separating 18 SCID mice into three groups (each group had six mice). The drug and its Nano formulations were administered intravenously (i.v.) at a bolus dose of 20 mg/kg. Groups of mice were given a dosage and then killed eight hours later. […] The samples were analysed using RP-UHPLC (Dionex Ultimate, 3000). […]

Data set [3] relates to Hep Par 1. Nature of the data set: Immunohistochemistry of xenograft tumour sections. Format: in vivo, SCID female mice. Particulars: five 400 µm × 400 µm zones. On the procedure:
Paraffin 10µm thick sections of xenograft HePG2 cancer cell tissues embedded in liver parenchyma blocks. The blocks were […] in a 10 mM citrate buffer solution and autoclaved for 20 minutes to extract antigens. After heating the section slide blocks, they were allowed to cool for 1.5 hours at room temperature. The sectioned slides were then incubated overnight at 4°C with a primary antibody against Hepatocyte specific antigen (Hep Par 1) (91091816- SK-HEP-1, Sigma-Aldrich, Bengaluru, India). Further, section slides were incubated with enzyme-linked immunosorbent assay (ELISA) horseradish peroxidase (HRP) conjugated Goat anti-Rabbit IgG (H+L) secondary antibody (Thermo Fisher Scientific, Vadodara, Gujarat) for 1hr followed by treatment with 120µL […] (Dako). For analysing the results of Immunohistochemistry, five square zones […] were measured and averaged for the number of stained cells in each sectioned slide. Using GraphPad Prism 9 (San Diego, California) and student t-test statistical analyses were performed.

A short description of data set [4]: Pharmacokinetic study, plasma by RP-HPLC. Format: in vivo, Male Albino Wister rats. The settings on record: rats, 20 mg/kg intravenous. On the procedure: 06 Male Albino Wister rats (200 to 250 g) are separated into two groups (n=3) for the purpose of conducting pharmacokinetic studies ([55]). For up to 72 hours, a comparative plasma concentration-time profile of Cabozantinib (CNB), CNB-PLGA-PSar-NPs was analysed. […] Using the tail vein of rats, 500µL of blood samples were collected at 0, 0.5, 1, 2, 4, 8, 16, 24, 48, and 72 hours from three animals in each group. Blood samples were stored in a microcentrifuge tube and centrifuged at 7,500 rpm for 30 minutes at 25°C to separate supernatant plasma. The collected samples were analysed using the RP-HPLC system and stored at -80°C (1290 Infinity II LC System, Agilent, USA). Using kinetica 5.0 pharmacokinetics software, the obtained RP-HPLC variables were interpreted in terms of their pharmacokinetics (Thermo Fisher Scientific, Yokohama)

Data set [5] concerns HePG2 cells Xenograft model. Nature of the data set: In vivo anti-tumour efficacy study, HePG2 xenograft. Details: species or system SCID female mice. Particulars: 20 mg/kg i.v. once weekly, 21 days. On the procedure: The SCID female mice of 8-10 weeks old were used in the in vivo effectiveness study ([53]). SCID stands for severe combined immunodeficiency disorder. Mice were housed in individually ventilated cages with pelleted food, a 12-hour/12-hour dark-light cycle, and unrestricted access to water (supplied ad libitum) in a climate-controlled setting with a temperature range of 25°C ± 3°C. The National Institutes of Health's guidelines for the care and use of animals were followed when conducting all animal experiments, which included those at Animal House of […], India. These facilities also complied with CPCSEA (Committee for the Purpose of Control and Supervision of Experiments on Animals) regulations. Mice were subcutaneously injected with cultured HePG2 cells (5x10^6 cells) in 200μL of RPMI 1640 with 33% Corning Matrigel Basement Membrane Matrix (Sigma-Aldrich, India). […] A digital electronic calliper was used to measure the tumor's size twice a week. To assess toxicity, body weight was monitored twice weekly. Tumour volume was calculated as […]. The SCID female mice were given thiopental anaesthesia prior to being killed by cervical dislocation. Before being implanted in paraffin wax, liver tissues and tumour bulbs from the descending liver were collected and preserved overnight in 10% formalin (CH2O) with a pH 7.4 phosphate buffer solution.

The mark [6] stands for this setting: male, Albino Wister, rat, plasma.

2 molecules from PMC9975495, “Unveiling the therapeutic potential of cabozantinib-loaded poly D,L-lactic-co-glycolic acid and polysarcosine nanoparticles in inducing apoptosis and cytotoxicity in human HepG2 hepatocellular carcinoma cell lines and in vivo anti-tumor activity in SCID female mice” (Frontiers in Oncology, 2023) can be followed below.

Consider Triton X 100, for which the “LDH release / erythrocyte membrane integrity” value in data set [1] is on record as “exceptionally significant LDH release”.

Regarding `COc1cc2nccc(Oc3ccc(NC(=O)C4(C(=O)Nc5ccc(F)cc5)CC4)cc3)c2cc1OC` [CNB, Cabozantinib], the tissue distribution entry in data set [2] is reported as “more widely distributed in the parenchymal hepatocyte tissue”. In addition, in data set [3], the “Hep Par 1 labelling index” value is recorded as 9.22 ± 1.67. Moreover, in data set [4] (setting [6]), the C0 was found to be 215 ± 16.3 ng/mL; the peak concentration (Cmax) – broadly, the highest concentration seen after dosing – worked out at 241 ± 34.2 ng/mL; the mean residence time (MRT) (in general, the average time that molecules of a dose stay in the body) was 7.45 ± 0.24 h; the volume of distribution (Vd) – broadly, the apparent volume that relates the amount in the body to the concentration in plasma or blood – turned out to be 1.522 ± 0.00154 L. In data set [4] (setting [6]), the clearance (commonly the volume of plasma or blood freed of the substance per unit of time) is 2.08 mL/min. The molecule also came in with a t1/2 in data set [4] of 5.21 ± 0.18 h. Moreover, in data set [1], the “LDH release / erythrocyte membrane integrity” value was “would not alter the integrity of erythrocyte membranes”. Moreover, the “reduction in the size of the tumour compared to the vehicle control” value in data set [5] is 60.3%.
